Results published in ChEMBL document CHEMBL1201862, “PubChem BioAssay data set” (2004).
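A five-concentration, 48-hour dose response in 96-well plates underlies each endpoint, interpolated linearly between surrounding concentrations. The concentration for 50% growth inhibition is given as GI50.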 Calls of active or inactive are those of the source. Rule as the data show it: active = GI50 up to about 1.1 µM and inactive = higher.

What was measured:
Test in all cases: growth of human tumour cells (NCI), 48 h
[1] = test system: ACHN
[2] = test system: DMS-114
[3] = test system: HCT-15
[4] = test system: HL-60
[5] = test system: KM12
[6] = test system: LOX IMVI
[7] = test system: M14
[8] = test system: M19-MEL
[9] = test system: NCI-H522
[10] = test system: OVCAR-3
[11] = test system: OVCAR-5
[12] = test system: SF-539
[13] = test system: SK-MEL-5
[14] = test system: SNB-75
[15] = test system: U-251
[16] = test system: UACC-257
[17] = test system: UO-31
[18] = test system: OVCAR-4

SMILES	GI50 [1]	GI50 [2]	GI50 [3]	GI50 [4]	GI50 [5]	GI50 [6]	GI50 [7]	GI50 [8]	GI50 [9]	GI50 [10]	GI50 [11]	GI50 [12]	GI50 [13]	GI50 [14]	GI50 [15]	GI50 [16]	GI50 [17]	GI50 [18]
C[Si](C)(C)/C=C\CCCN1C(=O)CCC1=O	> 100 µM (inactive)	71.1 µM (inactive)	> 100 µM	> 100 µM (inactive)	> 100 µM (inactive)	> 100 µM (inactive)	> 100 µM (inactive)	> 100 µM (inactive)	> 100 µM (inactive)	> 100 µM (inactive)	86.5 µM (inactive)	> 100 µM (inactive)	93.8 µM (inactive)	62.5 µM (inactive)	> 100 µM (inactive)	> 100 µM (inactive)	> 100 µM (inactive)	–
Nc1ccc(C(=O)NN2C(=O)C(Cl)C2c2cccc(O)c2)cc1 (stereo not given)	17.5 µM (inactive)	5.45 µM (inactive)	12.7 µM	1.69 µM (inactive)	10.7 µM (inactive)	3.85 µM (inactive)	19.4 µM (inactive)	21.5 µM (inactive)	1.75 µM (inactive)	15.8 µM (inactive)	22.2 µM (inactive)	17.1 µM (inactive)	17.6 µM (inactive)	22.3 µM (inactive)	12.5 µM (inactive)	18.3 µM (inactive)	19.7 µM (inactive)	16.7 µM (inactive)
CN(CCO)c1nc2c(c(=O)[nH]1)CNCC2	> 100 µM (inactive)	> 100 µM (inactive)	> 100 µM	> 100 µM (inactive)	> 100 µM (inactive)	> 100 µM (inactive)	> 100 µM (inactive)	80.2 µM (inactive)	> 100 µM (inactive)	> 100 µM (inactive)	> 100 µM (inactive)	> 100 µM (inactive)	> 100 µM (inactive)	32.8 µM (inactive)	> 100 µM (inactive)	> 100 µM (inactive)	> 100 µM (inactive)	> 100 µM (inactive)
CC(=O)NS(=O)(=O)c1ccc(NC(=O)COC(=O)c2cccc3c(=O)c4ccccc4[nH]c23)cc1	> 100 µM (inactive)	> 100 µM (inactive)	> 100 µM	> 100 µM (inactive)	> 100 µM (inactive)	> 100 µM (inactive)	> 100 µM (inactive)	> 100 µM (inactive)	> 100 µM (inactive)	92.5 µM (inactive)	–	> 100 µM (inactive)	> 100 µM (inactive)	> 100 µM (inactive)	> 100 µM (inactive)	> 100 µM (inactive)	> 100 µM (inactive)	–
COC(=O)C(=O)C(C(=O)C(=O)Nc1ccc(OC)cc1[N+](=O)[O-])c1nc2ccc([N+](=O)[O-])cc2nc1O (stereo not given)	> 100 µM (inactive)	> 100 µM (inactive)	> 100 µM	> 100 µM (inactive)	> 100 µM (inactive)	> 100 µM (inactive)	> 100 µM (inactive)	> 100 µM (inactive)	> 100 µM (inactive)	> 100 µM (inactive)	> 100 µM (inactive)	–	–	26.5 µM (inactive)	> 100 µM (inactive)	> 100 µM (inactive)	> 100 µM (inactive)	> 100 µM (inactive)
O[C@H]1[C@H]2[C@H](O)CCCN2C[C@H]1O [TRIDOLGOSIR]	> 100 µM (inactive)	> 100 µM (inactive)	> 100 µM	> 100 µM (inactive)	> 100 µM (inactive)	> 100 µM (inactive)	> 100 µM (inactive)	> 100 µM (inactive)	> 100 µM (inactive)	> 100 µM (inactive)	> 100 µM (inactive)	> 100 µM (inactive)	> 100 µM (inactive)	> 100 µM (inactive)	> 100 µM (inactive)	> 100 µM (inactive)	> 100 µM (inactive)	> 100 µM (inactive)
CCCCN(CCCC)CC(C(=O)Nc1ccc([N+](=O)[O-])cc1[N+](=O)[O-])/C(C)=N\NC(=O)C[N+](C)(C)C (stereo not given)	> 100 µM (inactive)	31.6 µM (inactive)	46.8 µM	> 100 µM (inactive)	> 100 µM (inactive)	33.3 µM (inactive)	> 100 µM (inactive)	> 100 µM (inactive)	41.9 µM (inactive)	> 100 µM (inactive)	> 100 µM (inactive)	> 100 µM (inactive)	> 100 µM (inactive)	29 µM (inactive)	> 100 µM (inactive)	> 100 µM (inactive)	66.5 µM (inactive)	> 100 µM (inactive)
c1ccc(NCn2cnc3ccccc32)cc1	68.4 µM (inactive)	> 100 µM (inactive)	15.6 µM	–	> 100 µM (inactive)	8.18 µM (inactive)	–	> 100 µM (inactive)	> 100 µM (inactive)	> 100 µM (inactive)	> 100 µM (inactive)	> 100 µM (inactive)	> 100 µM (inactive)	56.9 µM (inactive)	> 100 µM (inactive)	> 100 µM (inactive)	> 100 µM (inactive)	> 100 µM (inactive)
O=C(CC1(O)C(=O)Nc2ccc([N+](=O)[O-])cc21)c1ccncc1 (stereo not given)	43.3 µM (inactive)	30.5 µM (inactive)	83.8 µM	19.3 µM (inactive)	39 µM (inactive)	15.5 µM (inactive)	51.6 µM (inactive)	20.4 µM (inactive)	29.8 µM (inactive)	25.2 µM (inactive)	> 100 µM (inactive)	51.3 µM (inactive)	–	26.1 µM (inactive)	20.1 µM (inactive)	17.9 µM (inactive)	56.1 µM (inactive)	22.1 µM (inactive)
O=C(CSSCC(=O)OCCS(=O)(=O)Nc1ccc(Br)cc1)OCCS(=O)(=O)Nc1ccc(Br)cc1	18 µM (inactive)	4.26 µM (inactive)	14.5 µM	14.7 µM (inactive)	13.3 µM (inactive)	7.18 µM (inactive)	12.8 µM (inactive)	15.1 µM (inactive)	6.53 µM (inactive)	13.1 µM (inactive)	13.9 µM (inactive)	10.2 µM (inactive)	11.8 µM (inactive)	28.2 µM (inactive)	21.7 µM (inactive)	9.46 µM (inactive)	28.6 µM (inactive)	8.75 µM (inactive)
N#Cc1cccc(NC(=O)c2ccc(C(=O)O)c(C(=O)c3ccc(C(=O)O)c(C(=O)Nc4cccc(C#N)c4)c3)c2)c1	–	> 100 µM (inactive)	> 100 µM	> 100 µM (inactive)	> 100 µM (inactive)	> 100 µM (inactive)	> 100 µM (inactive)	> 100 µM (inactive)	> 100 µM (inactive)	> 100 µM (inactive)	> 100 µM (inactive)	> 100 µM (inactive)	> 100 µM (inactive)	> 100 µM (inactive)	> 100 µM (inactive)	> 100 µM (inactive)	> 100 µM (inactive)	> 100 µM (inactive)
C1CC[N+]23CCCC[N+]2(C1)CCCC3 (stereo not given)	> 100 µM (inactive)	56.2 µM (inactive)	> 100 µM	> 100 µM (inactive)	–	–	> 100 µM (inactive)	> 100 µM (inactive)	> 100 µM (inactive)	> 100 µM (inactive)	> 100 µM (inactive)	–	> 100 µM (inactive)	> 100 µM (inactive)	> 100 µM (inactive)	> 100 µM (inactive)	> 100 µM (inactive)	> 100 µM (inactive)
Fc1ccc(C2SCc3nc4ccccc4n32)cc1F (stereo not given)	30 µM (inactive)	18.1 µM (inactive)	35.7 µM	7.8 µM (inactive)	27.6 µM (inactive)	–	25.7 µM (inactive)	28.6 µM (inactive)	18.3 µM (inactive)	26.9 µM (inactive)	–	34 µM (inactive)	16.8 µM (inactive)	20.1 µM (inactive)	48.2 µM (inactive)	42.1 µM (inactive)	13.6 µM (inactive)	18.2 µM (inactive)
CCOC(=O)/C(C#N)=C\Sc1ccccc1	17.1 µM (inactive)	13.6 µM (inactive)	–	7.23 µM (inactive)	15.9 µM (inactive)	7.46 µM (inactive)	15.9 µM (inactive)	22 µM (inactive)	3.21 µM (inactive)	17.4 µM (inactive)	24.7 µM (inactive)	15.8 µM (inactive)	22.3 µM (inactive)	18.8 µM (inactive)	11.3 µM (inactive)	24.7 µM (inactive)	9.2 µM (inactive)	26.7 µM (inactive)
Cc1ccccc1-n1c(=O)sc2c(=O)n(-c3ccccc3)c(=S)[nH]c21	> 100 µM (inactive)	56.2 µM (inactive)	> 100 µM	> 100 µM (inactive)	> 100 µM (inactive)	–	> 100 µM (inactive)	> 100 µM (inactive)	42.6 µM (inactive)	> 100 µM (inactive)	95.5 µM (inactive)	> 100 µM (inactive)	> 100 µM (inactive)	> 100 µM (inactive)	> 100 µM (inactive)	> 100 µM (inactive)	> 100 µM (inactive)	> 100 µM (inactive)
CCOC(=O)C(=Cc1cc(OC)ccc1OC)C(=O)OCC	11.9 µM (inactive)	2.81 µM (inactive)	5.71 µM	1.96 µM (inactive)	6.53 µM (inactive)	3.83 µM (inactive)	11.6 µM (inactive)	4.07 µM (inactive)	3.66 µM (inactive)	10.7 µM (inactive)	6.27 µM (inactive)	4.1 µM (inactive)	4.16 µM (inactive)	1.67 µM (inactive)	4.79 µM (inactive)	–	–	7.89 µM (inactive)
